Laboratory results published in patent US7022667B2, “O-derivatized nocathiacin derivatives” (Bristol-Myers Squibb Company, priority 2002, dated 2006).
Values after ≈ are worked out from the molar mass of the structure shown.

Assays:
Assay in all cases: MIC, broth micro dilution assay (NCCLS)
Type in all cases: cell-based
[1] = tested on: Staphylococcus aureus A15090; conditions: Mueller-Hinton medium, 35° C., 18 hours
Description: (§1) The serial broth dilution method used Mueller-Hinton medium except for the Streptococcus pneumoniae which was tested in 50% Mueller-Hinton medium and 50% Todd Hewitt medium. The final bacterial inoculate contained approximately 5×10^5 cfu/well and was run on microtiter plates. The volume of each well was 100 μL and the plates were incubated at 35° C. for 18 hours in ambient air. The MIC was defined as the lowest drug concentration that prevented visible growth.

[2] = tested on: Streptococcus pneumoniae A28272; conditions: 50% Mueller-Hinton medium and 50% Todd Hewitt medium, 35° C., 18 hours
Description: as §1

[3] = tested on: Enterococcus faecalis A20688; conditions: Mueller-Hinton medium, 35° C., 18 hours
Description: as §1

Row | Compound | MIC (μg/mL) Staphylococcus aureus A15090 [1] | MIC (μg/mL) Streptococcus pneumoniae A28272 [2] | MIC (μg/mL) Enterococcus faecalis A20688 [3]
1 | C=C(NC(=O)c1csc(-c2nc3c(cc2OCC(=O)NCCNC(=O)OC(C)(C)C)-c2nc(cs2)C(=O)NC(C(C)O)C(=O)NC(=C(C)OC)c2nc(cs2)C(=O)NC2c4nc(cs4)C(=O)NC(COC(=O)c4c5c6c(cccc6n4OCC(=O)NCCNC(=O)OC(C)(C)C)COC(=O)C(OC4CC(C)(O)C(N(C)C)C(C)O4)C2OC5)c2nc-3cs2)n1)C(N)=O (stereo not drawn) [Example 69] | 16 µg/mL (≈ 8.7 µM) | 0.25 µg/mL (≈ 0.136 µM) | 64 µg/mL (≈ 34.8 µM)
2 | C=C(NC(=O)c1csc(-c2nc3c(cc2OCC(=O)NCC#N)-c2nc(cs2)C(=O)NC(C(C)O)C(=O)NC(=C(C)OC)c2nc(cs2)C(=O)NC2c4nc(cs4)C(=O)NC(COC(=O)c4c5c6c(cccc6n4OCC(=O)NCC#N)COC(=O)C(OC4CC(C)(O)C(N(C)C)C(C)O4)C2OC5)c2nc-3cs2)n1)C(N)=O (stereo not drawn) [Example 70] | 4.0 µg/mL (≈ 2.45 µM) | 0.06 µg/mL (≈ 0.0368 µM) | 0.5 µg/mL (≈ 0.307 µM)
3 | C=C(NC(=O)c1csc(-c2nc3c(cc2OCC(=O)N(C)C)-c2nc(cs2)C(=O)NC(C(C)O)C(=O)NC(=C(C)OC)c2nc(cs2)C(=O)NC2c4nc(cs4)C(=O)NC(COC(=O)c4c5c6c(cccc6n4OCC(=O)N(C)C)COC(=O)C(OC4CC(C)(O)C(N(C)C)C(C)O4)C2OC5)c2nc-3cs2)n1)C(N)=O (stereo not drawn) [Example 71] | 8.0 µg/mL (≈ 4.98 µM) | 0.125 µg/mL (≈ 0.0777 µM) | 4.0 µg/mL (≈ 2.49 µM)
4 | C=C(NC(=O)c1csc(-c2nc3c(cc2OCC(=O)OCCO)-c2nc(cs2)C(=O)NC(C(C)O)C(=O)NC(=C(C)OC)c2nc(cs2)C(=O)NC2c4nc(cs4)C(=O)NC(COC(=O)c4c5c6c(cccc6n4OCC(=O)OCCO)COC(=O)C(OC4CC(C)(O)C(N(C)C)C(C)O4)C2OC5)c2nc-3cs2)n1)C(N)=O (stereo not drawn) [Example 72] | 4.0 µg/mL (≈ 2.44 µM) | 0.06 µg/mL (≈ 0.0365 µM) | 4.0 µg/mL (≈ 2.44 µM)
5 | C=C(NC(=O)c1csc(-c2nc3c(cc2OCOP(=O)(OC(C)(C)C)OC(C)(C)C)-c2nc(cs2)C(=O)NC(C(C)O)C(=O)NC(=C(C)OC)c2nc(cs2)C(=O)NC2c4nc(cs4)C(=O)NC(COC(=O)c4c5c6c(cccc6n4OCOP(=O)(OC(C)(C)C)OC(C)(C)C)COC(=O)C(OC4CC(C)(O)C(N(C)C)C(C)O4)C2OC5)c2nc-3cs2)n1)C(N)=O (stereo not drawn) [Example 73] | 2.0 µg/mL (≈ 1.06 µM) | 0.25 µg/mL (≈ 0.133 µM) | 2.0 µg/mL (≈ 1.06 µM)
6 | C=CCOc1cc2c(nc1-c1nc(C(=O)NC(=C)C(N)=O)cs1)-c1csc(n1)C1COC(=O)c3c4c5c(cccc5n3OCC=C)COC(=O)C(OC3CC(C)(O)C(N(C)C)C(C)O3)C(OC4)C(NC(=O)c3csc(n3)C(=C(C)OC)NC(=O)C(C(C)O)NC(=O)c3csc-2n3)c2nc(cs2)C(=O)N1 (stereo not drawn) [Example 74] | 0.06 µg/mL (≈ 0.0395 µM) | 0.0005 µg/mL (≈ 0.000329 µM) | 0.25 µg/mL (≈ 0.165 µM)
7 | C#CCOc1cc2c(nc1-c1nc(C(=O)NC(=C)C(N)=O)cs1)-c1csc(n1)C1COC(=O)c3c4c5c(cccc5n3OCC#C)COC(=O)C(OC3CC(C)(O)C(N(C)C)C(C)O3)C(OC4)C(NC(=O)c3csc(n3)C(=C(C)OC)NC(=O)C(C(C)O)NC(=O)c3csc-2n3)c2nc(cs2)C(=O)N1 (stereo not drawn) [Example 75] | 0.03 µg/mL (≈ 0.0198 µM) | 0.0005 µg/mL (≈ 0.00033 µM) | 0.06 µg/mL (≈ 0.0396 µM)
8 | C=C(NC(=O)c1csc(-c2nc3c(cc2OCCO)-c2nc(cs2)C(=O)NC(C(C)O)C(=O)NC(=C(C)OC)c2nc(cs2)C(=O)NC2c4nc(cs4)C(=O)NC(COC(=O)c4c5c6c(cccc6n4OCCO)COC(=O)C(OC4CC(C)(O)C(N(C)C)C(C)O4)C2OC5)c2nc-3cs2)n1)C(N)=O (stereo not drawn) [Example 77] | 0.5 µg/mL (≈ 0.328 µM) | 0.03 µg/mL (≈ 0.0197 µM) | 1.0 µg/mL (≈ 0.655 µM)
9 | C=C(NC(=O)c1csc(-c2nc3c(cc2OCC(N)=O)-c2nc(cs2)C(=O)NC(C(C)O)C(=O)NC(=C(C)OC)c2nc(cs2)C(=O)NC2c4nc(cs4)C(=O)NC(COC(=O)c4c5c6c(cccc6n4OCOCC[Si](C)(C)C)COC(=O)C(OC4CC(C)(O)C(N(C)C)C(C)O4)C2OC5)c2nc-3cs2)n1)C(N)=O (stereo not drawn) [Example 78] | 64 µg/mL (≈ 39.4 µM) | 0.06 µg/mL (≈ 0.0369 µM) | 16 µg/mL (≈ 9.85 µM)
10 | C=C(NC(=O)c1csc(-c2nc3c(cc2OCc2ccccc2)-c2nc(cs2)C(=O)NC(C(C)O)C(=O)NC(=C(C)OC)c2nc(cs2)C(=O)NC2c4nc(cs4)C(=O)NC(COC(=O)c4c5c6c(cccc6n4OCOCC[Si](C)(C)C)COC(=O)C(OC4CC(C)(O)C(N(C)C)C(C)O4)C2OC5)c2nc-3cs2)n1)C(N)=O (stereo not drawn) [Example 79] | 1.0 µg/mL (≈ 0.603 µM) | 0.015 µg/mL (≈ 0.00905 µM) | 1.0 µg/mL (≈ 0.603 µM)
